{"source": "paper PMC4433263", "about": "“Identification of Rv3852 as an Agrimophol-Binding Protein in Mycobacterium tuberculosis” (PLoS ONE, 2015)", "target": "T1, Rv3852 (Mycobacterium tuberculosis, UniProt I6YHB0)", "T1 construct": "gene hns", "T1 sequence (I6YHB0 2-134 limits assumed)": "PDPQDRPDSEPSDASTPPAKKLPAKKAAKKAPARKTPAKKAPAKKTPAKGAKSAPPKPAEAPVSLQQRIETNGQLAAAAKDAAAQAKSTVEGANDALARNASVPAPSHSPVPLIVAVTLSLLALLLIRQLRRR", "test": "ITC; supported by competitive EMSA with proU2 DNA", "format": "binding"}
{"smiles": "C#CCOc1c(C)c(O)c(Cc2c(O)c(C)c(O)c(C(=O)C(C)CC)c2O)c(O)c1C(=O)CCC", "note": "(centres unmarked) [a1]", "values": [{"measurement": "Kd", "value": 22, "unit": "µM"}]}
{"smiles": "CCCC(=O)c1c(O)c(CC2(C)C(=O)C(C(=O)C(C)CC)=C(O)C(C)=C2O)c(O)c(C)c1OC", "note": "(centres unmarked) [agrimophol]", "values": [{"measurement": "Kd", "value": 34, "unit": "µM"}]}
